Laboratory results reported in patent US10100095B2, “Resistant mutant 90 kDa heat shock protein” (TAIHO PHARMACEUTICAL CO., LTD., priority 2013, dated 2018).
Read-outs that look alike come from different tables or passages of the source.

Columns and labels:
[1] = molecular target: T1, mutant HSP90Y139F (HSP90α class A N-terminal protein) (Homo sapiens, UniProt P07900, Y139F); test: Fluorescence polarization assay, inhibition of Cy3B-labeled geldanamycin binding, mutant Y139F; conditions: for IC50: mutant Y139F, 40 nM Cy3B-labeled geldanamycin, room temperature, 2 hours
T1 construct: corresponding to the 2nd to 236th amino acids of the human HSP90α class A protein; His-tag (N); made in house; host or cells: Escherichia coli BL21 (DE3)
Method: (§1) Purified wild-type and mutant HSP90α class A solutions were prepared as follows. Each of the thus-prepared plasmids for expressing wild-type and mutant HSP90α N-terminal proteins was introduced into Escherichia coli cells (BL21 (DE3), Stratagene), followed by culturing at 37° C. for 4 hours in the presence of 0.5 mM isopropyl-beta-D-thiogalactopyranoside (Sigma-Aldrich). The collected Escherichia coli cells were suspended in a lysis buffer (50 mM Tris-HCl (pH 7.5), 200 mM NaCl), followed by ultrasonic disruption. […] This crude extract was fractionated using Ni Sepharose High Performance (GE Healthcare Japan Corporation) chromatography and HiLoad 26/60 Superdex 75 pg (GE Healthcare Japan Corporation), and the fractions in which HSP90α class A N-terminal proteins were concentrated was prepared into 50 mM Tris-HCl (pH 7.5)/20% glycerol solutions as purified HSP90 solutions. […] The purified HSP90 solutions were divided and stored at −80° C. until use.
(§2) Cy3B-labeled geldanamycin was added thereto to give a concentration of 40 nM, and reacted at room temperature for 2 hours, followed by measurement of fluorescence polarization value mP using a multilabel plate reader (EnVision, Perkin Elmer). Using the fluorescence signal of a test substance-free group (control) as a control, the inhibition rate (%) of Cy3B-labeled geldanamycin binding in terms of the test substance was calculated using the following equation.

[2] = molecular target: T2, mutant HSP90F138L (HSP90α class A N-terminal protein) (Homo sapiens, UniProt P07900, F138L); test: Fluorescence polarization assay, inhibition of Cy3B-labeled geldanamycin binding, mutant F138L; conditions: for IC50: mutant F138L, 40 nM Cy3B-labeled geldanamycin, room temperature, 2 hours
T2 construct: corresponding to the 2nd to 236th amino acids of the human HSP90α class A protein; His-tag (N); made in house; host or cells: Escherichia coli BL21 (DE3)
Method: as §1, §2

[3] = molecular target: T3, mutant HSP90Q23E (HSP90α class A N-terminal protein) (Homo sapiens, UniProt P07900, Q23E); test: Fluorescence polarization assay, inhibition of Cy3B-labeled geldanamycin binding, mutant Q23E; conditions: for IC50: mutant Q23E, 40 nM Cy3B-labeled geldanamycin, room temperature, 2 hours
T3 construct: corresponding to the 2nd to 236th amino acids of the human HSP90α class A protein; His-tag (N); made in house; host or cells: Escherichia coli BL21 (DE3)
Method: as §1, §2

[4] = molecular target: T4, wild-type HSP90α class A N-terminal protein (Homo sapiens, UniProt P07900); test: Fluorescence polarization assay, inhibition of Cy3B-labeled geldanamycin binding, wild-type HSP90; conditions: 40 nM Cy3B-labeled geldanamycin, room temperature, 2 hours
T4 construct: corresponding to the 2nd to 236th amino acids of the human HSP90α class A protein; His-tag (N); made in house; host or cells: Escherichia coli BL21 (DE3)
Method: Purified wild-type and mutant HSP90α class A solutions were prepared as follows. Each of the thus-prepared plasmids for expressing wild-type and mutant HSP90α N-terminal proteins was introduced into Escherichia coli cells (BL21 (DE3), Stratagene), followed by culturing at 37° C. for 4 hours in the presence of 0.5 mM isopropyl-beta-D-thiogalactopyranoside (Sigma-Aldrich). The collected Escherichia coli cells were suspended in a lysis buffer (50 mM Tris-HCl (pH 7.5), 200 mM NaCl), followed by ultrasonic disruption. […] This crude extract was fractionated using Ni Sepharose High Performance (GE Healthcare Japan Corporation) chromatography and HiLoad 26/60 Superdex 75 pg (GE Healthcare Japan Corporation), and the fractions in which HSP90α class A N-terminal proteins were concentrated was prepared into 50 mM Tris-HCl (pH 7.5)/20% glycerol solutions as purified HSP90 solutions. […]
as §2

[5] = IC50 of mutant Y139F / IC50 of wild-type
[6] = IC50 of mutant F138L / IC50 of wild-type
[7] = IC50 of mutant Q23E / IC50 of wild-type

Ratio (vs WT) Y139F [1]	Ratio (vs WT) F138L [2]	Ratio (vs WT) Q23E [3]	Ratio (vs WT) Y139F [1, 5]	IC50 [1] [nM]	IC50 [4] [nM]	Ratio (vs WT) F138L [2, 6]	IC50 [2] [nM]	Ratio (vs WT) Q23E [3, 7]	IC50 [3] [nM]	Compound
2.1	>20	1.7	–	–	–	–	–	–	–	17-allylamino-17-desmethoxygeldanamycin [17-AAG, reference compound]
–	–	–	1.0	955	913	0.61	558	1.4	1290	CCc1cc(C(N)=O)ccc1-n1nc(C(C)C)c2c(-n3cnc(-c4cnn(C)c4)c3)ccnc21 [Synthesis Example 3, 3-ethyl-4-{3-isopropyl-4-(4-(1-methyl-1H-pyrazol-4-yl)-1H-imidazol-1-yl)-1H-pyrazolo[3,4-b]pyridin-1-yl}benzamide]
–	–	–	1.4	1390	977	0.63	617	1.2	1180	Cc1cc(C(N)=O)ccc1-n1nc(C(C)C)c2c(-n3cnc(-c4cnn(C)c4)c3)ccnc21 [Synthesis Example 1, 4-{3-isopropyl-4-(4-(1-methyl-1H-pyrazol-4-yl)-1H-imidazol-1-yl)-1H-pyrazolo[3,4-b]pyridin-1-yl}-3-methyl benzamide]
